One test concerns the target T1, human ALK2 R206H (Homo sapiens, UniProt Q04771, R206H).
T1 construct: expressed in transfected cells; host or cells: HEK293 (ATCC CRL1573), lentivirus transduction, blasticidin selection
T1 sequence (Q04771 21-509 R206H): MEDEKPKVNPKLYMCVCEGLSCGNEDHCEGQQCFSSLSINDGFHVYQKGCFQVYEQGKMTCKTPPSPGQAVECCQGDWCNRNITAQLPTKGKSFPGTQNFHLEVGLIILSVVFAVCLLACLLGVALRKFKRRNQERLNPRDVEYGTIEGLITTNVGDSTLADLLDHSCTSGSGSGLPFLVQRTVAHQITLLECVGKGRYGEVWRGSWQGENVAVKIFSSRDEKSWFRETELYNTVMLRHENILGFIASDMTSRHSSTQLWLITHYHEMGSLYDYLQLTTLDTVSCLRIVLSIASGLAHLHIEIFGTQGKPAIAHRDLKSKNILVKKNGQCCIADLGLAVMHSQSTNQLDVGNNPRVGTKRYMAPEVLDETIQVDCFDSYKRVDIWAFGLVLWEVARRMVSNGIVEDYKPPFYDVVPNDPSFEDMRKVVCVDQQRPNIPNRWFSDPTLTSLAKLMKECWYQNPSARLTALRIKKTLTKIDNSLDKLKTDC
The experiment in a line: Cell-based ALK2-R206H cell activity assay (Smad1-Ser463/Ser465 phosphorylation by AlphaLISA in HEK293-ALK2-R206H cells). The note with it: read-out: Cell Line (Cell Assay IC50). The essentials:
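Stable HEK293 cells expressing C-terminally FLAG-tagged human ALK2 R206H (lentiviral, blasticidin-selected) were treated with compounds in 10-point, 3-fold dilutions from 10 μM or 1 μM top, in duplicate. Smad1 Ser463/Ser465 phosphorylation was read by AlphaLISA.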
In general terms: Bead proximity is the source of the signal in Alpha formats.

Test [1] deals with T2, ALK2 R206H (GST-tagged mutant ALK2) (Homo sapiens, UniProt Q04771, R206H).
T2 construct: purchased Carna Bioscience or ThermoFisher 09-148 or PV6232
T2 sequence (Q04771 21-509 R206H): T1 sequence (Q04771 21-509 R206H)
Put plainly: ALK binding assay (LANTHASCREEN TR-FRET competitive binding, displacement of Kinase Tracer 178). The note with it: ALK2 R206H, LANTHASCREEN TR-FRET competitive binding; read-out: Binding Assay (IC50). A general note: Time-resolved FRET reads energy transfer from a long-lived donor to a nearby acceptor.

Structures are written as SMILES. Bounds are passed on as bounds.

As a reminder, the IC50 is the concentration at which inhibition is half-maximal. As to `CC(C)N1CCN[C@@](C)(c2ccc(-c3cc4c(N5CCN(C(=O)C6CC6)CC5)ccnn4c3)nc2)C1` [Compound 576], the IC50 on human ALK2 R206H is below 100 nM; in test [1], below 10 nM.
The like results for `CC(C)NC(=O)N1CCN(c2ccnn3cc(-c4ccc([C@@H]5CCCN(C(C)C)C5)cc4)cc23)CC1` [Compound 577] were, in that order, below 100 nM and below 10 nM.
In the same order, the values of `CC(C)NC(=O)N1CCN(c2ccnn3cc(-c4ccc([C@H]5CCCN(C(C)C)C5)cc4)cc23)CC1` [Compound 578] are below 100 nM and below 10 nM.
In the same order, the values of `CCCNC(=O)N1CCN(c2ccnn3cc(-c4ccc([C@H]5CCCN(C(C)C)C5)cc4)cc23)CC1` [Compound 579] are below 100 nM and below 10 nM.
For `CCCNC(=O)N1CCN(c2ccnn3cc(-c4ccc([C@@H]5CCCN(C(C)C)C5)cc4)cc23)CC1` [Compound 580], the IC50 is below 100 nM on human ALK2 R206H and below 10 nM in test [1].
The like results for `CC(C)NC(=O)N1CCN(c2ccnn3cc(-c4ccc([C@]5(C)CCCN5C(C)C)cc4)cc23)CC1` [Compound 581] were, in that order, below 100 nM and below 10 nM.
The like results for `CC(C)NC(=O)N1CCN(c2ccnn3cc(-c4ccc([C@@]5(C)CCCN5C(C)C)cc4)cc23)CC1` [Compound 582] were, in that order, below 100 nM and below 10 nM.
The like results for `CC(C)N1CCC(F)(c2ccc(-c3cc4c(N5CCN(C(=O)C6CC6)CC5)ccnn4c3)cc2)CC1` [Compound 583] were, in that order, below 100 nM and below 10 nM.
In the case of `CCOC(=O)N1CCN(c2ccnn3cc(-c4ccc(C5(C)CCN(C(C)C)CC5)cc4)cc23)CC1` [Compound 585], the IC50 on human ALK2 R206H is below 100 nM; in test [1], below 10 nM.
In the same order, the values of `CCOC(=O)N1CCN(c2ccnn3cc(-c4ccc([C@@H]5CCCN(C(C)C)C5)cc4)cc23)C[C@H]1C` [Compound 586] are 100 to 500 nM and below 10 nM.
Take `CCNC(=O)N1CCN(c2ccnn3cc(-c4ccc(C5CN(C(C)C)CCN5C)cc4)cc23)CC1` (centres unmarked) [Compound 587]: the IC50 at human ALK2 R206H is below 100 nM; in test [1], below 10 nM.
As for `CC(C)NC(=O)N1CCN(c2ccnn3cc(-c4ccc([C@@H]5CCCN(C(C)C)C5)cn4)cc23)CC1` [Compound 588], the IC50 on human ALK2 R206H was below 100 nM; in test [1], below 10 nM.
The like results for `CC(C)NC(=O)N1CCN(c2ccnn3cc(-c4ccc([C@H]5CCCN(C(C)C)C5)cn4)cc23)CC1` [Compound 589] were, in that order, below 100 nM and below 10 nM.
For `CCNC(=O)N1CCN(c2ccnn3cc(-c4ccc([C@]5(O)CCCN(C(C)C)C5)cc4)cc23)CC1` [Compound 591], the IC50 at human ALK2 R206H was below 100 nM; in test [1], below 10 nM.
The like results for `CCNC(=O)N1CCN(c2ccnn3cc(-c4ccc([C@@]5(O)CCCN(C(C)C)C5)cc4)cc23)CC1` [Compound 592] were, in that order, below 100 nM and below 10 nM.
For `COC1(c2ccc(-c3cc4c(N5CCN(C(=O)NC(C)C)CC5)ccnn4c3)cc2)CN(C(C)C)C1` [Compound 593], the results for the IC50 (at human ALK2 R206H; in test [1]) were below 100 nM and below 10 nM, respectively.
In the case of `CC(C)NC(=O)N1CCN(c2ccnn3cc(-c4ccc(C5COCCN5C(C)C)cc4)cc23)CC1` (centres unmarked) [Compound 594], the IC50 on human ALK2 R206H is below 100 nM; in test [1], below 10 nM.
Take `CC(C)NC(=O)N1CCN(c2ccnn3cc(-c4ccc([C@@]5(O)CCN(C(C)C)C5)cc4)cc23)CC1` [Compound 595]: the figures for the IC50 (on human ALK2 R206H; in test [1]) were below 100 nM and below 10 nM, respectively.
For the compound `CC(C)NC(=O)N1CCN(c2ccnn3cc(-c4ccc([C@]5(O)CCN(C(C)C)C5)cc4)cc23)CC1` [Compound 596], the results for the IC50 (at human ALK2 R206H; in test [1]) were 100 to 500 nM and below 10 nM, respectively.
In the same order, the values of `CCOC(=O)N1CCN(c2ccnn3cc(-c4ccc([C@@]5(C)CN(C(C)C)CCN5)cc4)cc23)CC1` [Compound 597] are below 100 nM and below 10 nM.
As to `CCOC(=O)N1CCN(c2ccnn3cc(-c4ccc([C@]5(C)CN(C(C)C)CCN5)cc4)cc23)CC1` [Compound 598], the figures for the IC50 (on human ALK2 R206H; in test [1]) were below 100 nM and below 10 nM, respectively.
In the same order, the values of `COC1(c2ccc(-c3cc4c(N5CCN(C(=O)OC6COC6)CC5)ccnn4c3)cc2)CCNCC1` [Compound 599] are below 100 nM and below 10 nM.
The like results for `CO[C@@]1(c2ccc(-c3cc4c(N5CCN(C(=O)OC6COC6)CC5)ccnn4c3)cc2)CCCNC1` [Compound 600] were, in that order, below 100 nM and below 10 nM.
As to `CO[C@]1(c2ccc(-c3cc4c(N5CCN(C(=O)OC6COC6)CC5)ccnn4c3)cc2)CCCNC1` [Compound 601], the IC50 at human ALK2 R206H was below 100 nM; in test [1] it was below 10 nM.
In the same order, the values of `CCOC(=O)N1CCN(c2ccnn3cc(-c4ccc([C@@]5(OC)CCN(C(C)C)C5)cc4)cc23)CC1` [Compound 603] are below 100 nM and below 10 nM.
The like results for `CCOC(=O)N1CCN(c2ccnn3cc(-c4ccc([C@]5(OC)CCN(C(C)C)C5)cc4)cc23)CC1` [Compound 604] were, in that order, below 100 nM and below 10 nM.
In the same order, the values of `CCNC(=O)N1CCN(c2ccnn3cc(-c4ccc([C@]5(O)CCCN(C(C)C)C5)cn4)cc23)CC1` [Compound 605] are below 100 nM and below 10 nM.
For the compound `CCNC(=O)N1CCN(c2ccnn3cc(-c4ccc([C@@]5(O)CCCN(C(C)C)C5)cn4)cc23)CC1` [Compound 606], the IC50 was below 100 nM at human ALK2 R206H and below 10 nM in test [1].
The like results for `CC(C)NC(=O)N1CCN(c2ccnn3cc(-c4ccc([C@@]5(O)CCN(C(C)C)C5)cn4)cc23)CC1` [Compound 608] were, in that order, 100 to 500 nM and below 10 nM.
The like results for `COC1(c2ccc(-c3cc4c(N5CCN(C(=O)OC6COC6)CC5)ccnn4c3)nc2)CCNCC1` [Compound 609] were, in that order, below 100 nM and below 10 nM.
The like results for `CCOC(=O)N1CCN(c2ccnn3cc(-c4ccc([C@]5(F)CCCN(C(C)C)C5)cc4)cc23)CC1` [Compound 610] were, in that order, below 100 nM and below 10 nM.
For `CCOC(=O)N1CCN(c2ccnn3cc(-c4ccc([C@@]5(F)CCCN(C(C)C)C5)cc4)cc23)CC1` [Compound 611], the IC50 on human ALK2 R206H was below 100 nM; in test [1], below 10 nM.
In the same order, the values of `CCOC(=O)N1CCN(c2ccnn3cc(-c4ccc([C@]5(F)CCCN(C(C)C)C5)cn4)cc23)CC1` [Compound 613] are below 100 nM and below 10 nM.
The like results for `CCOC(=O)N1CCN(c2ccnn3cc(-c4ccc([C@@]5(F)CCCN(C(C)C)C5)cn4)cc23)CC1` [Compound 614] were, in that order, below 100 nM and below 10 nM.
In the same order, the values of `CC(C)N1CCC(C#N)(c2ccc(-c3cc4c(N5CCN(C(=O)C6CC6)CC5)ccnn4c3)cc2)CC1` [Compound 615] are below 100 nM and below 10 nM.
For the compound `CC(C)N1CC(O)(c2ccc(-c3cc4c(N5CCN(C(=O)C6CC(C#N)C6)CC5)ccnn4c3)cc2)C1` (centres unmarked) [Compound 616], the IC50 on human ALK2 R206H is below 100 nM; in test [1] it was below 10 nM.
In the same order, the values of `CC(C)N1CCC[C@@H](c2ccc(-c3cc4c(N5CCN(C(=O)NCCC#N)CC5)ccnn4c3)cc2)C1` [Compound 617] are 100 to 500 nM and below 10 nM.

The values above are taken from US10233186B2, “Inhibitors of activin receptor-like kinase” (BLUEPRINT MEDICINES CORPORATION, priority 2016, dated 2019).
